Values quoted from earlier work, collected in PMC3147153 (Clinical cancer research : an official journal of the …, 2009).

System: CYP3A4
Settings: in vitro; ref studies done by Ariad Pharmaceuticals; cited from earlier work

In the case of CO[C@H]1C[C@@H]2CC[C@@H](C)[C@@](O)(O2)C(=O)C(=O)N2CCCC[C@H]2C(=O)O[C@H]([C@H](C)C[C@@H]2CC[C@@H](O)[C@H](OC)C2)CC(=O)[C@H](C)/C=C(\C)[C@@H](O)[C@@H](OC)C(=O)[C@H](C)C[C@H](C)/C=C/C=C/C=C/1C [sirolimus, reference compound], the “metabolism by CYP3A4” value is given as “primarily metabolized by CYP3A4”.
